{"source": "paper PMC12842892", "about": "“Truncated Equinin B Variants Reveal the Sequence Determinants of Antimicrobial Selectivity” (Marine Drugs, 2026)", "key": {"[1]": {"tested_on": "Staphylococcus epidermidis DSM 20044", "type": "cell-based", "procedure": "(§1) For these studies we used reference strains Escherichia coli ATCC25922, Bacillus subtilis 168c, Staphylococcus epidermidis DSM 20044 (DSMZ Gmbh, Brauschweig, Germany) and Enterococcus hirae DSM 3320 (DSMZ Gmbh, Germany). Bacterial cells were inoculated into Mueller–Hinton Broth II (MHB II; Sigma-Aldrich, Steinheim, Germany) and grown to the mid-logarithmic phase, washed in sodium buffered saline (PBS, 137 mM NaCl, 2.7 mM KCl, 10 mM Na2HPO4, and 2 mM KH2PO4, pH 7.4). The culture was adjusted to ~1 × 10^6 CFU/mL and dispensed into 96-well microtiter plates. Peptides were tested in two-fold serial dilutions across a concentration range of 0.4–100 µM, each concentration assayed in duplicate. Growth control wells (bacteria + medium, no peptide) and sterility control wells (medium only) were included. In parallel, the inoculum density and purity were verified by plating serial dilutions of the bacterial culture on MHB agar. After incubation at 37 °C for 20 h under static conditions, bacterial growth was quantified by measuring optical density at 620 nm (OD 620). […] The experiment was repeated in three independent biological replicates."}, "[2]": {"tested_on": "Gram-positive and Gram-negative bacteria", "settings": "cited from earlier work", "description": "Even though the discovery of antibiotics revolutionized medicine, their inappropriate use has enabled the spread of resistant bacteria and rendered commercially available antibiotics ineffective. Antibiotic resistance (AR) is one of the greatest threats, and the development of new molecules with antibacterial activity has become a global priority. Antimicrobial peptides (AMPs), naturally occurring defense molecules found across many species, represent a powerful alternative antibacterial strategy against antibiotic-resistant pathogens. As part of the innate immune response, ..."}, "S. epidermidis": {"tested_on": "S. epidermidis", "assay": "Membrane permeability assay (propidium iodide uptake), S. epidermidis", "type": "cell-based, Staphylococcus epidermidis", "settings": "1 × 10^7 cells/mL in PBS; PI 2.5 µg/mL; 37 °C, 120 min", "procedure": "(§2) Bacterial membrane permeabilization was evaluated using propidium iodide (PI) uptake. PI is a membrane-impermeable dye: it cannot cross intact bacterial cytoplasmic membranes, but when the membrane integrity is compromised (for example, via peptide-mediated permeabilization), PI enters the cell, intercalates into nucleic acids (DNA and RNA) and fluorescence increases markedly. B. subtilis, E. hirae and S. epidermidis cells were grown to mid-logarithmic phase, harvested by centrifugation, washed once with PBS and diluted to a concentration of 1 × 10^7 cells/mL using PBS instead of growth medium. […] Fluorescence (excitation 535 nm, emission 617 nm) was monitored every 2 min for 120 min at 37 °C using a microplate reader (GloMax®, Promega, Madison, WI, USA). The time-course fluorescence curves were recorded for each peptide concentration (in duplicate for each time point, and the entire experiment was repeated three independent times). From each time-course fluorescence curve (for a given peptide concentration), a constant time-window (for example minutes 10 to 20) was selected where the fluorescence signal was stable or in the linear uptake phase. The fluorescence values within that window were averaged to provide a representative fluorescence uptake value for that peptide concentration. […]"}, "E. hirae": {"tested_on": "E. hirae", "assay": "Membrane permeability assay (propidium iodide uptake), E. hirae", "type": "cell-based, Enterococcus hirae", "settings": "1 × 10^7 cells/mL in PBS; PI 2.5 µg/mL; 37 °C, 120 min", "procedure": "as §2"}, "B. subtilis": {"tested_on": "B. subtilis", "assay": "Membrane permeability assay (propidium iodide uptake), B. subtilis", "type": "cell-based, Bacillus subtilis", "settings": "1 × 10^7 cells/mL in PBS; PI 2.5 µg/mL; up to 400 µM; 37 °C, 120 min; fluorescence 535/617 nm; three independent experiments in duplicates", "procedure": "as §2"}, "[3]": {"tested_on": "Escherichia coli ATCC25922", "type": "cell-based", "settings": "E. coli ATCC25922; cation-adjusted MHB II; ~1 × 10^6 CFU/mL; two-fold dilutions; 37 °C, 20 h; OD 620; three independent replicates, duplicates", "procedure": "as §1"}}, "note": "Like-named read-outs stand apart in the source and are kept apart here. Where a SMILES comes first, the peptide text is derived from it. Where no end group is shown, it is not given here."}
{"compound": "CC[C@H](C)[C@H](NC(=O)[C@H](CS)NC(=O)[C@@H](N)CCCNC(=N)N)C(=O)N[C@@H](CCCNC(=N)N)C(=O)N[C@@H](CCCNC(=N)N)C(=O)N[C@@H](CS)C(=O)N[C@@H](Cc1ccccc1)C(=O)NCC(=O)N[C@@H](Cc1ccc(O)cc1)C(=O)N[C@@H](CS)C(=O)N[C@@H](CC(C)C)C(=O)O", "note": "[EB3, Arg-Cys-Ile-Arg-Arg-Cys-Phe-Gly-Tyr-Cys-Leu] (H-RCIRRCFGYCL-OH)", "values": [{"measurement": "MIC against S. epidermidis", "setting": "[1]; DSM 20044, 20 h", "value": 25, "unit": "µM"}]}
{"compound": "GQCQRKCLGHCSKKCPKHPQCRKRCIRRCFGYCL [Equinin B, 34-residue marine antimicrobial peptide isolated from the tentacle of Actinia equina]", "values": [{"measurement": "bactericidal concentrations", "setting": "[2]", "value": 0.25, "unit": "mg/mL"}, {"measurement": "minimum inhibitory concentrations (MICs)", "setting": "[2]", "value": 1000, "unit": "µg/mL"}]}
{"compound": "LL-37 (LLGDFFRKSKEKIGKEFKRIVQRIKDFLRNLVPRTES; Antibacterial peptide LL-37; UniProt P49913 134-170, looked up)", "values": [{"measurement": "membrane permeabilization of S. epidermidis (PI uptake), in words", "setting": "S. epidermidis", "value": "unable to permeabilize"}, {"measurement": "membrane permeabilization of E. hirae (PI uptake), in words", "setting": "E. hirae", "value": "unable to permeabilize"}, {"measurement": "membrane permeabilization of B. subtilis (PI uptake), in words", "setting": "B. subtilis", "value": "extensive membrane permeabilization"}]}
{"compound": "RRIRRRFGYRL [EB3-C, Arg-Arg-Ile-Arg-Arg-Arg-Phe-Gly-Tyr-Arg-Leu]", "values": [{"measurement": "MIC90, Staphylococcus epidermidis", "setting": "[1]; DSM 20044, 20 h", "value": "25 to 50", "unit": "µg/mL"}]}
{"compound": "RRIRRRGYRL-OH [EB3a-C, Arg-Arg-Ile-Arg-Arg-Arg-Gly-Tyr-Arg-Leu]", "values": [{"measurement": "antimicrobial activity against S. epidermidis, in words", "setting": "[1]; MIC assay, up to 100 µM", "value": "abolished activity"}, {"measurement": "MIC90, Staphylococcus epidermidis", "setting": "[1]; S. epidermidis DSM 20044, cation-adjusted MHB II, ~1 × 10^6 CFU/mL, two-fold dilutions, 37 °C, 20 h, OD 620, three independent replicates, duplicates", "value": ">100", "unit": "µg/mL"}, {"measurement": "MIC90, Escherichia coli", "setting": "[3]", "value": ">100", "unit": "µg/mL"}]}
